According to PubChem BioAssay (NCI):
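Five concentrations, 48 hours, 96-well plates. The concentration for full growth arrest is given as TGI.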

Legend:
Assay in all cases: NCI-60 cell line screen, 48 h
NCI-H522 lung = test system: NCI-H522 lung
SW-620 colon = test system: SW-620 colon
MDA-MB-435 = test system: MDA-MB-435
RXF 393 renal = test system: RXF 393 renal
A498 renal = test system: A498 renal
HCT-116 colon = test system: HCT-116 colon
UACC-257 melanoma = test system: UACC-257 melanoma
MCF7 breast = test system: MCF7 breast
ACHN renal = test system: ACHN renal
MOLT-4 leukemia = test system: MOLT-4 leukemia
CCRF-CEM leukemia = test system: CCRF-CEM leukemia
DU-145 prostate = test system: DU-145 prostate
NCI-H460 lung = test system: NCI-H460 lung
SNB-19 CNS = test system: SNB-19 CNS
TK-10 renal = test system: TK-10 renal
LOX IMVI melanoma = test system: LOX IMVI melanoma
RPMI-8226 leukemia = test system: RPMI-8226 leukemia
SK-OV-3 ovarian = test system: SK-OV-3 ovarian
OVCAR-3 ovarian = test system: OVCAR-3 ovarian

| Structure (SMILES) | TGI (NCI-H522 lung) [µM] | TGI (SW-620 colon) [µM] | TGI (MDA-MB-435) [µM] | TGI (RXF 393 renal) [µM] | TGI (A498 renal) [µM] | TGI (HCT-116 colon) [µM] | TGI (UACC-257 melanoma) [µM] | TGI (MCF7 breast) [µM] | TGI (ACHN renal) [µM] | TGI (MOLT-4 leukemia) [µM] | TGI (CCRF-CEM leukemia) [µM] | TGI (DU-145 prostate) [µM] | TGI (NCI-H460 lung) [µM] | TGI (SNB-19 CNS) [µM] | TGI (TK-10 renal) [µM] | TGI (LOX IMVI melanoma) [µM] | TGI (RPMI-8226 leukemia) [µM] | TGI (SK-OV-3 ovarian) [µM] | TGI (OVCAR-3 ovarian) [µM] |
| --- | --- | --- | --- | --- | --- | --- | --- | --- | --- | --- | --- | --- | --- | --- | --- | --- | --- | --- | --- |
| CCOC(=O)CCc1c(C)[nH]c2c(C)c3c([nH]c4ccc(Cl)cc43)c(C)c2c1=O | 24.1 | > 100 | > 100 | 6.76 | 33 | 38.7 | 30.5 | 37.7 | 28.9 | > 100 | > 100 | > 100 | 6.11 | > 100 | 37.2 | 23.3 |  |  |  |
| CC(C)(C)OC(=O)N/N=C(/N)c1ccccc1 | > 100 |  | > 100 | > 100 |  | > 100 | > 100 | > 100 | > 100 | > 100 | > 100 | > 100 | > 100 | > 100 | > 100 | > 100 | > 100 | > 100 | > 100 |
| CC1(C)C(=O)C2(C#N)CCC1C2 (stereo unspecified) |  | > 100 | > 100 | > 100 | > 100 | > 100 | > 100 | > 100 | > 100 | > 100 | > 100 | > 100 | > 100 | > 100 | > 100 | > 100 | > 100 | > 100 | > 100 |
| NCCc1ccc2c(c1)C(=O)c1c(O)ccc(O)c1C2=O |  | > 100 | > 100 | > 100 | > 100 | > 40.3 | > 100 | > 100 | > 53.6 | > 100 | > 100 | > 100 | > 87.6 | 29.6 | > 100 | > 100 | > 100 | 22.2 | 5.66 |
| c1ccc2c3nnc(c2c1)SCCSCCCSCCS3 | > 100 | > 100 | > 100 | 95.7 | 92.6 | > 100 | > 100 | > 100 | > 100 |  | > 100 | > 100 | > 100 | 76 | > 100 | > 100 |  | 97.5 | > 100 |
| COc1ccc2c(c1)CC[C@@H]1[C@@H]2CC[C@]2(C)[C@@H](O)/C(=C/c3ccncc3)C[C@@H]12 | 30.6 | 24.8 | 27.3 | 17.9 | 38.3 | 30 | 35.6 | 30.2 | 67.2 | 26.4 | 81 | 41 | 27.3 | 51.8 | 34 |  | 25.1 | 49.4 | 39.3 |
| CC1(C)S[C@@H]2[C@H](NC(=O)/C=C/c3ccccc3)C(=O)N2[C@H]1C(=O)O | > 100 | > 100 | > 100 |  |  | > 100 | > 100 | > 100 | > 100 | > 100 | > 100 | > 100 | > 100 | > 100 | > 100 | > 100 | > 100 | > 100 | > 100 |
| COC(=O)/C(=C\C(=O)c1ccc(Br)cc1)NN=C(c1ccccc1)c1ccccc1 |  | > 10 | > 10 | > 10 |  |  | > 10 | > 10 |  | > 10 | > 10 | > 10 |  |  | > 10 | > 10 | > 10 | > 10 |  |
| CCOC(=O)C(Cc1cn(S(=O)(=O)c2ccc(C)cc2)cn1)P(=O)(OCC)OCC (stereo unspecified) | > 100 | > 100 | > 100 | > 100 |  | > 100 | > 100 | > 100 | > 100 | > 100 | > 100 | > 100 | > 100 | > 100 | > 100 | > 100 | > 100 | > 100 | > 100 |
| COP(=O)(C(/C=C/c1ccccc1)OC(C)=O)[C@@H]1CCCC[C@H]1N(CC(C)(C)C)C(C)=O (stereo partly specified) | 27.9 | 41.2 | 36.2 | 22.1 |  | 25.6 | 31 | > 100 | 30.7 | 27.7 | 67.2 | 32.5 | 28.6 | > 100 | 48.2 | 30.3 |  | > 100 | 31.9 |
| CC1C(=O)C23OC[C@@]1(C)C1(O)CC[C@@H](C)[C@]21CC3=O (stereo partly specified) | > 100 | > 100 | > 100 | > 100 |  | > 100 | > 100 | > 100 | > 100 | > 100 | > 100 | > 100 | > 100 | > 100 | > 100 | > 100 | > 100 | > 100 | > 100 |
| Cc1cc(=O)[nH]c2c3c(ccc12)OC(C)(C)C=C3 | 67.4 | > 100 | 4.9 | > 31.4 | > 87.7 | > 50.1 | > 100 | > 100 | > 100 | > 100 | > 100 | > 100 | > 100 | > 67.3 | > 100 |  | > 100 | > 82.9 | > 27.7 |
| CNC(=O)OCCN1c2ccccc2Sc2ccccc21 | > 100 | > 100 | > 100 | 99.2 | > 100 | > 100 | > 100 | > 100 | > 100 | > 100 | > 100 | > 100 | > 100 | > 100 | > 100 | > 100 |  | > 100 | > 100 |
| NC(=O)C(=CN1CC(=O)NC1=S)C(N)=O |  | > 100 | > 100 | > 100 | > 100 | > 100 | > 100 | > 100 | > 100 | > 100 |  | > 100 | > 100 | > 100 | > 100 | > 100 |  | > 100 | > 100 |
| CCOC(=O)CCC(NC(=O)c1ccc(Oc2nc3ccccc3nc2C(=O)OCC)cc1)C(=O)OCC (stereo unspecified) | > 100 | > 100 | > 100 |  |  | > 100 | > 100 | > 100 | > 100 | > 100 | > 100 | > 100 | > 100 | > 100 | > 100 | > 100 | > 100 |  | > 100 |
| COc1ccc(Nc2nc3ccccc3nc2C(=O)O)cc1 | > 100 | > 100 | > 100 | > 100 | > 100 | > 100 | > 100 | > 100 | > 100 | > 100 | > 100 | > 100 | > 100 | > 100 | > 100 | > 100 |  | > 100 | > 100 |
| COc1ccc2[nH]c3c(C)c4cnccc4c(C)c3c2c1 | 4.43 | 3.4 | 2.84 | 6.02 |  | 2.5 | > 10 | 3.9 | > 10 | > 10 | > 10 | 9.93 | 3.58 | > 10 | > 10 |  | 7.11 | > 10 | 2.43 |
| O=C(CCO)OCCCCCC/C=C\CCCCCC/C=C\CCCCCCCCOC(=O)CCO | 30.1 | 80.4 | 45.7 | 35 | 50 | 29.9 | 30.9 | 40.3 | 64.3 | 28.6 | 32.2 | 30 | 31.4 | 32.9 | 31.5 | 36.6 |  | 37.5 | 41.2 |
| Cc1ccccc1NC(=O)C(=O)Cc1cnc2ccccc2n1 | > 100 | > 100 | > 100 |  | > 100 | > 100 | > 100 | > 100 | > 100 | > 100 | > 100 | > 100 | > 100 | > 100 | > 100 | > 100 | > 100 | > 100 | > 100 |
| Cc1cc(C)c(NS(=O)c2cccc([N+](=O)[O-])c2)c(C)c1 (stereo unspecified) |  | > 100 | > 100 | > 100 | > 100 |  | > 100 | > 100 | > 100 | > 100 | > 100 | > 100 | > 100 | > 100 | > 100 |  | > 100 |  | > 100 |
| O=C1CSC(/C=C/c2ccccc2)N1c1ccc(-n2c(-c3ccccc3)nc3ccccc3c2=O)cc1 (stereo unspecified) | > 100 |  | > 100 |  | > 100 | > 100 | > 100 | > 100 |  | > 100 | > 100 | > 100 | > 100 | > 100 | > 100 | > 100 | > 100 | 69 | > 100 |
